Test systems include 786-0 renal; A549 NSCLC; ACHN renal; COLO 205 colon; DU-145 prostate; HCC-2998 colon; HT29 colon; LOX IMVI melanoma; MDA-MB-231 breast; MDA-MB-435; NCI-H23 lung; OVCAR-5 ovarian; PC-3 prostate; SK-OV-3 ovarian; SN12C renal; SNB-19 CNS; SR leukemia; U251 CNS; UACC-257 melanoma.
Common to all, as to experiment: NCI-60 cell line screen, 48 h

SMILES strings stand for the structures.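 Test compounds were applied to cells in 96-well plates for 48 hours at 5 doses. Definition used: TGI = concentration required for complete inhibition of growth.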

With `Cc1ccc(-c2n[nH]c(=O)n2/N=C\c2ccc([N+](=O)[O-])cc2)cc1`, the TGI with 786-0 renal, in the assay with A549 NSCLC, in the assay with ACHN renal, in the assay on COLO 205 colon, with DU-145 prostate and in the assay with HCC-2998 colon was > 100 µM throughout. The TGI in the assay with HT29 colon is > 100 µM; in the assay with LOX IMVI melanoma, > 100 µM; with MDA-MB-231 breast it was > 75.9 µM; with MDA-MB-435, > 94.2 µM; in the assay with NCI-H23 lung, > 100 µM; in the assay with OVCAR-5 ovarian, > 100 µM. Besides, the TGI with PC-3 prostate, in the assay with SK-OV-3 ovarian, in the assay on SN12C renal, in the assay with SNB-19 CNS, in the assay with SR leukemia and in the assay with U251 CNS was > 100 µM in each case. In addition, in the assay with UACC-257 melanoma, the TGI is > 100 µM.

Regarding `O=C(Nc1nncs1)NS(=O)(=O)n1c(=S)sc2ccccc21`, the TGI with 786-0 renal, in the assay on A549 NSCLC, with ACHN renal, in the assay on COLO 205 colon, in the assay on DU-145 prostate and in the assay with HCC-2998 colon was > 100 µM throughout. Moreover, the TGI in the assay on HT29 colon, in the assay with LOX IMVI melanoma, in the assay on MDA-MB-231 breast, in the assay on MDA-MB-435, in the assay with NCI-H23 lung and in the assay on OVCAR-5 ovarian was > 100 µM throughout. The TGI in the assay on PC-3 prostate, in the assay with SK-OV-3 ovarian, in the assay with SN12C renal, in the assay with SNB-19 CNS, with SR leukemia and in the assay with U251 CNS was > 100 µM throughout. The TGI with UACC-257 melanoma is > 100 µM.

Take `Cc1cc(C2CC(O)C(CO)O2)c(F)cc1F` (centres undefined): the TGI in the assay on 786-0 renal, in the assay on A549 NSCLC, in the assay with ACHN renal, with COLO 205 colon, in the assay with DU-145 prostate and in the assay with HCC-2998 colon was > 100 µM in each case. The TGI in the assay with HT29 colon, in the assay on LOX IMVI melanoma, with MDA-MB-231 breast, with MDA-MB-435, in the assay with NCI-H23 lung and with OVCAR-5 ovarian was > 100 µM throughout. Also, the TGI with PC-3 prostate, with SK-OV-3 ovarian, with SN12C renal, in the assay with SNB-19 CNS, with SR leukemia and with U251 CNS was > 100 µM in each case. Moreover, the TGI in the assay on UACC-257 melanoma is > 100 µM.

For the molecule `CCOC(=O)c1nc2ccc(C(F)(F)F)cc2[nH]c1=O`, the TGI in the assay with 786-0 renal, in the assay with A549 NSCLC, in the assay on ACHN renal, with COLO 205 colon, in the assay on DU-145 prostate and with HCC-2998 colon was > 100 µM each time. The TGI in the assay with HT29 colon, with LOX IMVI melanoma, in the assay with MDA-MB-231 breast, in the assay on MDA-MB-435, with NCI-H23 lung and with OVCAR-5 ovarian was > 100 µM in each case. The TGI in the assay with PC-3 prostate, with SK-OV-3 ovarian, in the assay with SN12C renal, with SNB-19 CNS, in the assay on SR leukemia and in the assay with U251 CNS was > 100 µM in each case. The TGI in the assay on UACC-257 melanoma was > 100 µM.

As for `CCCCCCOc1ccc(Nc2c(O)c3c(c(O)c2Cl)C(=O)C=CC3=O)cc1`, the TGI in the assay on 786-0 renal was > 7.32 µM; in the assay on A549 NSCLC it was > 10 µM; in the assay with ACHN renal it was > 10 µM; in the assay on COLO 205 colon, 4.15 µM; with DU-145 prostate, > 10 µM; in the assay on HCC-2998 colon, 3.86 µM. Further, the TGI is > 7.46 µM in the assay with HT29 colon; 3.61 µM in the assay on LOX IMVI melanoma; > 6.11 µM in the assay on MDA-MB-231 breast; 3.9 µM in the assay on MDA-MB-435; 4.95 µM in the assay on NCI-H23 lung; > 10 µM with OVCAR-5 ovarian. Moreover, the TGI was > 10 µM in the assay on PC-3 prostate; > 10 µM with SK-OV-3 ovarian; 4.54 µM in the assay on SN12C renal; > 9.63 µM with SNB-19 CNS; 5.33 µM with SR leukemia; > 6.07 µM in the assay with U251 CNS. In addition, in the assay on UACC-257 melanoma, the TGI was > 8.89 µM.

Regarding `CC(C(=O)OCc1ccccc1)(c1ccco1)N1C(=O)OC(c2ccccc2)C1c1ccccc1` (centres undefined), the TGI in the assay with 786-0 renal, with A549 NSCLC, with ACHN renal, in the assay on COLO 205 colon, in the assay with DU-145 prostate and in the assay with HCC-2998 colon was > 100 µM throughout. For the same molecule, the TGI in the assay with HT29 colon, with LOX IMVI melanoma, with MDA-MB-231 breast, with MDA-MB-435, in the assay on NCI-H23 lung and with OVCAR-5 ovarian was > 100 µM throughout. Also, the TGI in the assay on PC-3 prostate, in the assay on SK-OV-3 ovarian, with SN12C renal, with SNB-19 CNS, with SR leukemia and with U251 CNS was > 100 µM each time. The TGI with UACC-257 melanoma was > 100 µM.

The record behind these values is PubChem BioAssay (NCI).
